# Positions count from the first letter of the chain named.
# Assays:
# Type in all cases: cell-based
# [1] = biological target: T1, ABCG2 (Homo sapiens, UniProt Q9UNQ0); assay: Mitoxantrone (MX) accumulation by flow cytometry, ABCG2-expressing PLB and A431 cells; parameters: expressed in transfected cells; host or cells: PLB-985 and A431 cells (retroviral transduction); details: control and ABCG2 expressing PLB and A431 cells, 1 μM MX, 60 minutes
# T1 sequence (Q9UNQ0 1-655): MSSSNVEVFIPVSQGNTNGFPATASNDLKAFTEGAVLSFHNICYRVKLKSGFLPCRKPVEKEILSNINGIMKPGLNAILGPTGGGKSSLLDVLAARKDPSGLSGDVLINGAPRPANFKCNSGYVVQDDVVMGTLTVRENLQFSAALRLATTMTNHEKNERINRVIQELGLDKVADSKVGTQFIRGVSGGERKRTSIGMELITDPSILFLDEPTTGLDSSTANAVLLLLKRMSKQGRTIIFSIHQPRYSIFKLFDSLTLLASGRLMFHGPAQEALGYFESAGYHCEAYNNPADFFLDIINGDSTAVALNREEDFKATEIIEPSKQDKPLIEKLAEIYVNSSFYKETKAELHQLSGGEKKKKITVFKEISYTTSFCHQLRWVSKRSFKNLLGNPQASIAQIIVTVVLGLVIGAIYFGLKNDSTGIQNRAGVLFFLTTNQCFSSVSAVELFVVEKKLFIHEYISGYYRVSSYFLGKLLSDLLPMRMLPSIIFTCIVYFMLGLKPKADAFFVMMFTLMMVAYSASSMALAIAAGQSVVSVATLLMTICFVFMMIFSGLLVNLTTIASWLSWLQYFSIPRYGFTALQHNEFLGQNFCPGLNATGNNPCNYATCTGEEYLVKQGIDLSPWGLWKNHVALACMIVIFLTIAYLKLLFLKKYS
# [2] = biological target: T2, ABCB1 (Homo sapiens, UniProt P08183); assay: PhenGreen (PG) accumulation by flow cytometry, ABCB1-expressing PLB and A431 cells
# T2 construct: expressed in transfected cells; host or cells: PLB-985 and A431 cells (retroviral transduction)
# Method: (§1) In order to follow the time-dependent accumulation of PG, 5×10^5 cells were washed twice with 1 mL DPBS (1 g/L D-glucose with phosphate buffered saline), then pre-incubated in the uptake buffer (1 mM EDTA in DPBS) for 10 minutes at 37° C. Thereafter the cells were incubated in the uptake buffer with various concentrations of PhenGreen SK diacetate (PGD), with or without transporter inhibitor, at 37° C., for 1-60 minutes. Dye uptake was stopped by the addition of 150 μl ice-cold EDTA-DPBS, the cells were kept on ice until the measurements (see FIG. 12.). […]
# (§2) The cells (5×10^5) were incubated with 0.5 μM PGD or 1 μM (Mx) with or without inhibitors, for 30 (PGD) or 60 (Mx) minutes at 37° C. The reaction was stopped by the addition of ice-cold EDTA-DPBS and fluorescence was measured as described above.
# (§3) All experiments were performed at least three times. […] Results were expressed as median±standard deviation. The MDR activity factor % (MAF %—see refs [Homolya L et al. Br J Cancer. 1996; Holló Z et al. Anticancer Res. 1998; 18: 2981-7., Sarkadi et al. U.S. Pat. No. 5,872,014 1999]) was calculated as follows: MAF %=(((MFIinh−MFI0)/MFIinh)×100), wherein MFIinh and MFI0 are the median fluorescence intensity (MFI) with (inh) or without (0) inhibitor. […]
# [3] = biological target: T3, ABCC1 (Homo sapiens, UniProt P33527); assay: PhenGreen (PG) accumulation by flow cytometry, ABCC1-expressing HL-60 and HEK cells
# T3 construct: expressed in transfected cells; host or cells: HL-60 and HEK-293 cells (retroviral transduction)
# Method: as §1, §2, §3
# [4] = tested on: PLB, HEK or A431 cells; assay: Cell viability assay after PGD loading; details: PGD loading 30 min at 37° C.; PLB cells counted for 9 days, HEK or A431 cells cultured 72 hours
# Method: Control and ABCG2 expressing PLB-985 cells (1×10^6) were pre-incubated in the uptake buffer for 10 minutes at 37° C., then incubated with or without 0.5 μM PGD for 30 minutes at 37° C. The PGD-treated cells were sorted based on PG fluorescence by FACS Aria III Cell sorter (BD Bioscience, San Jose, CA, with 488 nm blue laser excitation and 530/30 nm emission). The sorted cells were suspended in 3 mL RMPI media in 6 well plates and live cell number was measured each day, dead cells were excluded by TO-PRO™-3 Iodide.
# In order to estimate the EC50 values, HEK or A431 cells were treated with […] for 30 min at 37° C. in the EDTA-DPBS buffer, then washed and cultured in 2 mL DMEM media in 12 well plates for 72 hours. […]
# In the first set of these experiments (FIG. 7, Panel A) we used control and ABCG2 expressing PLB cells, incubated in the PGD loading media with or without 0.5 μM PGD for 30 minutes at 37° C. The PGD-treated cells were then sorted based on PG fluorescence by flow cytometry, and the cells were resuspended in RPMI media. […]
# In the second set of experiments HEK or A431 cells were treated with the indicated concentrations of PGD for 30 min at 37° C. in the loading media, then washed and cultured in normal cell culturing media for 72 hours. Live cell number was determined by flow cytometry, dead cells excluded by TO-PRO-3 staining (see Methods). […]
# [5] = tested on: human peripheral blood mononuclear cells (PBMCs); assay: Functional test of ABCG2, ABCB1 or ABCC1 transporter function in PBMCs
# Method: Freshly drawn venous blood samples were collected from healthy donors into EDTA coated tubes. Peripheral blood mononuclear cells (PBMCs) were isolated by Ficoll-histopaque density gradient centrifugation. The PBMCs were washed twice with 1 mL EDTA-DPBS uptake buffer (1 mM EDTA and 1 g/L D-glucose with phosphate buffered saline). The various cell populations can be stained with cluster of differentiation markers (CD markers), conjugated by e.g. APC, APC-Cy7, Pacific blue, or other fluorescent marker. After CD labeling the cells were incubated in the uptake buffer with 1 μM PhenGreen SK diacetate (PGD), or 0.25 μM Calcein-AM (CaAM) or 1 μM mitoxantrone (Mx), with or without selective transporter inhibitors, for 30 minutes (PGD and CaAM) or 60 minutes (Mx) at 37° C. […] The reaction was stopped by the addition of ice-cold EDTA-DPBS and fluorescence was measured as described above.
# […] cell populations, i.e. granulocytes, monocytes and lymphocytes have been visualized by flow cytometry as described in the Materials and Methods chapter (Panel A). […] MDR activity factors were calculated as described above based on the measurements of the accumulation of the three fluorescent dyes, with or without inhibitors, in the respective leukocyte populations (Panel C).
# [6] = biological target: T1, ABCG2; assay: PhenGreen (PG) accumulation by flow cytometry, ABCG2-expressing PLB and A431 cells; parameters: expressed in transfected cells; host or cells: PLB-985 and A431 cells (retroviral transduction)
# Method: In order to follow the time-dependent accumulation of PG, 5×10^5 cells were washed twice with 1 mL DPBS (1 g/L D-glucose with phosphate buffered saline), then pre-incubated in the uptake buffer (1 mM EDTA in DPBS) for 10 minutes at 37° C. Thereafter the cells were incubated in the uptake buffer with various concentrations of PhenGreen SK diacetate (PGD), with or without transporter inhibitor, at 37° C., for 1-60 minutes. Dye uptake was stopped by the addition of 150 μl ice-cold EDTA-DPBS, the cells were kept on ice until the measurements (see FIG. 12.). For assessing the PGD concentration dependence of PG accumulation, 5×10^5 PLB-985 or A431 cells, expressing the ABCB1 or ABCG2 transporters, or HL-60 and HEK-293 cells, expressing ABCC1, were washed twice with 1 mL DPBS, then pre-incubated in EDTA-DPBS medium for 10 minutes at room temperature. The cells were incubated in EDTA-DPBS with 0.1-5 μM of PGD at 37° C. for 30 minutes. Dye uptake was stopped by the addition of 150 μl ice-cold EDTA-DPBS. The cells were kept on ice until the measurement.
# as §2
# All experiments were performed at least three times. Data analysis was performed using FACSDiva v6.1.3 Software (BD Bioscience, San Jose, CA), flow cytometry figures were prepared with the Attune Acoustic Focusing Cytometer v1.25 Software (Applied Biosystems, Life Technologies, Carlsbad, CA, USA). Results were expressed as median±standard deviation. The MDR activity factor % (MAF %—see refs [Homolya L et al. Br J Cancer. 1996; Holló Z et al. Anticancer Res. 1998; 18: 2981-7., Sarkadi et al. U.S. Pat. No. 5,872,014 1999]) was calculated as follows: MAF %=(((MFIinh−MFI0)/MFIinh)×100), wherein MFIinh and MFI0 are the median fluorescence intensity (MFI) with (inh) or without (0) inhibitor. The EC50 analysis was carried out using the Origin 8.6. software.
# [7] = biological target: T4, ABCG2 (Homo sapiens, UniProt Q9UNQ0, K86M); assay: as above; details: PLB cells expressing ABCG2-K86M
# T4 construct: expressed in transfected cells; host or cells: PLB-985 and A431 cells (retroviral transduction)
# T4 sequence (Q9UNQ0 1-655 K86M): T1 sequence (Q9UNQ0 1-655) with K86M
# Method: as §1, §2, §3
# [8] = biological target: T1, ABCG2; assay: PG accumulation examined by confocal microscopy in PLB and PLB-ABCG2 cells; parameters: expressed in transfected cells; host or cells: PLB-985 cells (retroviral transduction); details: PLB-ABCG2 cells, 0.5 μM PGD, 30 minutes, no inhibitor
# Method: For confocal microscopy the cells (5×10^5) were washed twice with 1 mL DPBS, then pre-incubated with 1 μg/mL Alexa Fluor-647 conjugated wheat-germ agglutinin (WGA-A647) in uptake buffer for 5 minutes at room temperature. Thereafter the cells were incubated with 0.5 μM PGD with or without transporter inhibitors for 30 minutes at 37° C. PGD uptake was stopped by washing the cells with 1 mL DPBS. The images were acquired by a Zeiss LSCM 710 microscope using a 63×NA=1.4 Plan Apo objective. Images were captured and analyzed by Zen2 (Blue edition) Software.
# In order to examine the wider applicability of the PGD-based assay for functional ABCG2 transporter studies, we examined PG accumulation in control PLB cells and in PLB cells expressing ABCG2, by using fluorescence (confocal) microscopy.
# In these experiments, in order to label the plasma membrane compartment of the cells, we also included the staining of live PLB cells with a fluorescent anti-WGA antibody.
# T2 sequence (P08183 whole entry): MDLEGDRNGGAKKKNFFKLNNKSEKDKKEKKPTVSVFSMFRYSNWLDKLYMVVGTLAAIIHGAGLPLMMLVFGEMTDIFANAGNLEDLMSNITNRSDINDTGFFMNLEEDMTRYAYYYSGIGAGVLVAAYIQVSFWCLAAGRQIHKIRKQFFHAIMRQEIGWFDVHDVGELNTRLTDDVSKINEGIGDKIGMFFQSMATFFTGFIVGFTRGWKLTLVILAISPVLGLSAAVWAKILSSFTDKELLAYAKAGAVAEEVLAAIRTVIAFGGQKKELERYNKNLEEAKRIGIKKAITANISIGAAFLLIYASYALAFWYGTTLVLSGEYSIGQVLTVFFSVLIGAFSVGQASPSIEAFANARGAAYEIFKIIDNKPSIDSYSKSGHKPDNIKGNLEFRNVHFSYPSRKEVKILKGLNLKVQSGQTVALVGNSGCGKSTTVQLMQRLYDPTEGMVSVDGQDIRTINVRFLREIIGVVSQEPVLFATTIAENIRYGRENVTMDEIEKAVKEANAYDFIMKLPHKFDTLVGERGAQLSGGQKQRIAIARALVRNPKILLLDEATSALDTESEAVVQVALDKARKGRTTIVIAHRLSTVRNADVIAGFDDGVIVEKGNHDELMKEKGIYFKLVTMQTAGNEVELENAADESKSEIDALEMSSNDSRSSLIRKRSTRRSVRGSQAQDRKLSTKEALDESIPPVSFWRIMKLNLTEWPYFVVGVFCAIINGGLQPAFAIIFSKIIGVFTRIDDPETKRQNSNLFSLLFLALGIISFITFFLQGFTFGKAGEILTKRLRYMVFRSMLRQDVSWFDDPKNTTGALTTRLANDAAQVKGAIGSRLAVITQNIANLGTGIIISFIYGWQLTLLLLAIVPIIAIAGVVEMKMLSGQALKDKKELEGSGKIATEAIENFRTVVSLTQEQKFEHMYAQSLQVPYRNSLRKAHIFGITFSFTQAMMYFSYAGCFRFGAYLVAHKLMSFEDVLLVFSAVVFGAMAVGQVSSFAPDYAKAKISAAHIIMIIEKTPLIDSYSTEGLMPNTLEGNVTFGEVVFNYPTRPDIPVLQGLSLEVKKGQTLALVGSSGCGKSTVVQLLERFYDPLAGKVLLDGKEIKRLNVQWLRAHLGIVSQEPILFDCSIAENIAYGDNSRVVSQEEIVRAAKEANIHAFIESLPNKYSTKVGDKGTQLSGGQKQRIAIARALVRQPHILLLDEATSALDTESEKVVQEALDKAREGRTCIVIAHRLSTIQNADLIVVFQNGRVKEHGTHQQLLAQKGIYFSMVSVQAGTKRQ
# T3 sequence (P33527 whole entry): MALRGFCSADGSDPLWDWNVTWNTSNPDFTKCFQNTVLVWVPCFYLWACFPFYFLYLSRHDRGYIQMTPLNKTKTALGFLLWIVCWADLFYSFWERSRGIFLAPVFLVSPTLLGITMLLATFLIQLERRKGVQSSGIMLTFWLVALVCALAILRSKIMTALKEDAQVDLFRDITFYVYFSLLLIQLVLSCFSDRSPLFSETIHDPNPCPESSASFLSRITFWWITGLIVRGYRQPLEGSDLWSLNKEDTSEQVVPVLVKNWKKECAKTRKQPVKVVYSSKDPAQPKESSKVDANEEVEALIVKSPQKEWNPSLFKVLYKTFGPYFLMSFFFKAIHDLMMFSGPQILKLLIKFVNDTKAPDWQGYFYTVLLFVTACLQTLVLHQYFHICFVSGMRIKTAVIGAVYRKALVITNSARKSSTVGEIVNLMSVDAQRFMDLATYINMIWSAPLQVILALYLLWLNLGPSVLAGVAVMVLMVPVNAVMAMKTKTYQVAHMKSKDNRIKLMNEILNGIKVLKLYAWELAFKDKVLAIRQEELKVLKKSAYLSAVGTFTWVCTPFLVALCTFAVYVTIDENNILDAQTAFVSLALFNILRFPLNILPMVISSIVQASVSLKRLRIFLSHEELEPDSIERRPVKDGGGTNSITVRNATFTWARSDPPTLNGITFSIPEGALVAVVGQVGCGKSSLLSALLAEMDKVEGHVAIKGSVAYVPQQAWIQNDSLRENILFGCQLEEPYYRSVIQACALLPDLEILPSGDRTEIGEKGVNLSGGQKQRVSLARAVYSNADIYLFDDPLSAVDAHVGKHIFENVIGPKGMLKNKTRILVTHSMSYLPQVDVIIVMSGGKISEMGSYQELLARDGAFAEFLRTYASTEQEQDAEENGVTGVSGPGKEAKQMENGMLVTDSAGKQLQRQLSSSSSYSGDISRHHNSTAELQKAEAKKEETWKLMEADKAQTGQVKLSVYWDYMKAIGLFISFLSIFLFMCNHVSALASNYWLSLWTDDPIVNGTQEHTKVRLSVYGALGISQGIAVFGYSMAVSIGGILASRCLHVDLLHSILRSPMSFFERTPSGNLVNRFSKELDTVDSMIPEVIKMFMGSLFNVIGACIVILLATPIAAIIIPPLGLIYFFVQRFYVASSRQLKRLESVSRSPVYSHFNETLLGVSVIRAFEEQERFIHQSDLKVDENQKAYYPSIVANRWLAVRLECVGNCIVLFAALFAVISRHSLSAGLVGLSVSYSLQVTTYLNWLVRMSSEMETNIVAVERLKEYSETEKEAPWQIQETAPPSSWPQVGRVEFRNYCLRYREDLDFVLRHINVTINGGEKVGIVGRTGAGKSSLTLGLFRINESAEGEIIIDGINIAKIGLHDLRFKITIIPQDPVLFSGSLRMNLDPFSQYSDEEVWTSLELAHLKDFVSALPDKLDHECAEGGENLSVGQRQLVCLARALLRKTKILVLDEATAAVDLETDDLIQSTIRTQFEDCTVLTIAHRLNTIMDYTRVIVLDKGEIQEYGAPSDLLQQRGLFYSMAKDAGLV
compound,measurement,setting,value
"O=C1c2c(O)ccc(O)c2C(=O)c2c(NCCNCCO)ccc(NCCNCCO)c21 [MX, mitoxantrone]",MDR activity factor (MAF) based on MX extrusion,[1],essentially similar results as obtained by using PG accumulation
"CC(=O)Oc1cc2c(cc1Cl)C1(OC(=O)c3cc(C(=O)Nc4cc5cccnc5c5ncccc45)ccc31)c1cc(Cl)c(OC(C)=O)cc1O2 [PGD, PhenGreen SK diacetate]","applicability for calculating the MDR activity factor, compared with mitoxantrone",[2]; ABCB1 expressing PLB cells,similarly or better applicable than MX
same,PG accumulation in ABCB1 expressing cells versus control parental cells,"[2]; PLB and A431 cells, 0.1-5 μM PGD, EDTA-DPBS, 30 minutes at 37° C.",significantly lower levels of PG than their control parental cells
same,"applicability for calculating the MDR activity factor, compared with mitoxantrone",[3]; ABCC1 expressing HL-60 cells,similarly or better applicable than MX
same,PG accumulation in ABCC1 expressing cells versus control parental cells,"[3]; HL-60 and HEK cells, 0.1-5 μM PGD, EDTA-DPBS, 30 minutes at 37° C.",significantly lower levels of PG than their control parental cells
same,effect of PG accumulation on cell growth,[4],no measurable effect on the growth of the cells
same,transporter substrate activity in mononuclear cell populations,"[5]; granulocytes, monocytes and lymphocytes, 1 μM PGD, 30 minutes at 37° C.",active substrate in each cell type
same,MAF factor compared with other dyes,"[5]; monocytes, ABCG2, ABCB1 and ABCC1 with selective inhibitors",higher MAF factor than Calcein AM and mitoxantrone for each of the transporters
same,time in which the increase in cellular PG fluorescence saturated,"[6]; PLB cells, 0.5 to 2.5 μM PGD in the media, 37° C.",less than 30 minutes
same,effect of ABCG2 protein on accumulated PG fluorescence,"[6]; PLB vs PLB-ABCG2 cells, low (below 1 μM) PGD, 30 minutes at 37° C., flow cytometry",major difference in the amount of the accumulated PG fluorescence
PhenGreen SK [PG],effect of non-functional catalytic mutant ABCG2-K86M on PG accumulation,[7],no effect on PG accumulation
same,cytoplasmic PG accumulation (confocal microscopy),[8],practically did not accumulate PG
same,MDR activity factor (MAF) from PG accumulation in absence or presence of Ko143,[6]; PLB cells expressing wild-type ABCG2,high activity level
